Experimental data taken from ChEMBL document CHEMBL4382204 (Eur J Med Chem, 2018).
Calls of active or inactive are those of the source. The rule behind the calls is not given here.

Tests used:
[1] = target: Platelet-derived growth factor receptor alpha (Homo sapiens) (UniProt P16234); test: Inhibition of wild type C-terminal FLAG-tagged human TEL fused PDGFRalpha (unknown origin) transfected in mouse BAF3 cells assessed as growth inhibition after 72 hrs by CCK8 assay; format: cell-based
[2] = target: T1, Bcr/Abl fusion protein (Homo sapiens) (UniProt P00519+P11274); details: BaF3
T1 sequence (P00519 whole entry, looked up, the tested form may be a part): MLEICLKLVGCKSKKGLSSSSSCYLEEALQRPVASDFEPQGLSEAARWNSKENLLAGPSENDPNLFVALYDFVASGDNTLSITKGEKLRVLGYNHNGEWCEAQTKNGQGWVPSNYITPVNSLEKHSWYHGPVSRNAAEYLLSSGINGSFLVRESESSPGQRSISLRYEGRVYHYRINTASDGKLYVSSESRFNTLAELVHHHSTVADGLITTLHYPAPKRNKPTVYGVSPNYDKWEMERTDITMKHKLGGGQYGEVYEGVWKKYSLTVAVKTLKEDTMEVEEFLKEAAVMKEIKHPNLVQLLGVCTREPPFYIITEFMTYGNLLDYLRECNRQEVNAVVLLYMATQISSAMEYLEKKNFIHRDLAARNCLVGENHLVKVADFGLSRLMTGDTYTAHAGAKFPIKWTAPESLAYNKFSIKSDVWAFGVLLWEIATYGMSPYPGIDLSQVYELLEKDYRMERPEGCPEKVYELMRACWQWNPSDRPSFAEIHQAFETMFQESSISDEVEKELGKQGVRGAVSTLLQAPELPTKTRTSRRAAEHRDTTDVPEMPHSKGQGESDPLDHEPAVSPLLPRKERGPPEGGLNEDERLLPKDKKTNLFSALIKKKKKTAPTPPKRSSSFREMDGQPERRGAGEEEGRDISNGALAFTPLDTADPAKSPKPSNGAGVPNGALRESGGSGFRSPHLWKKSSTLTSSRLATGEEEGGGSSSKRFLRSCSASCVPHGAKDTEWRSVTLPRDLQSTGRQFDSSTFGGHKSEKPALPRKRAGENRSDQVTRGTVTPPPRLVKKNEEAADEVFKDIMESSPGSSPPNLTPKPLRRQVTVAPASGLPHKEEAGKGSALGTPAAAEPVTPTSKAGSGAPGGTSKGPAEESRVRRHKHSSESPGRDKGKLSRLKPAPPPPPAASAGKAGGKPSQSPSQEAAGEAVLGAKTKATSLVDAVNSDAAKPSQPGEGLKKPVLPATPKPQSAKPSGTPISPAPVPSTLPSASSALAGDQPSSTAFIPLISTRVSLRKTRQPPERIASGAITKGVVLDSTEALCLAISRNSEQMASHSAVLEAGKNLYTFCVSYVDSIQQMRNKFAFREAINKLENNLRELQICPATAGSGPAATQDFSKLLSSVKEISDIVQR
T1 sequence (P11274 whole entry, looked up, the tested form may be a part): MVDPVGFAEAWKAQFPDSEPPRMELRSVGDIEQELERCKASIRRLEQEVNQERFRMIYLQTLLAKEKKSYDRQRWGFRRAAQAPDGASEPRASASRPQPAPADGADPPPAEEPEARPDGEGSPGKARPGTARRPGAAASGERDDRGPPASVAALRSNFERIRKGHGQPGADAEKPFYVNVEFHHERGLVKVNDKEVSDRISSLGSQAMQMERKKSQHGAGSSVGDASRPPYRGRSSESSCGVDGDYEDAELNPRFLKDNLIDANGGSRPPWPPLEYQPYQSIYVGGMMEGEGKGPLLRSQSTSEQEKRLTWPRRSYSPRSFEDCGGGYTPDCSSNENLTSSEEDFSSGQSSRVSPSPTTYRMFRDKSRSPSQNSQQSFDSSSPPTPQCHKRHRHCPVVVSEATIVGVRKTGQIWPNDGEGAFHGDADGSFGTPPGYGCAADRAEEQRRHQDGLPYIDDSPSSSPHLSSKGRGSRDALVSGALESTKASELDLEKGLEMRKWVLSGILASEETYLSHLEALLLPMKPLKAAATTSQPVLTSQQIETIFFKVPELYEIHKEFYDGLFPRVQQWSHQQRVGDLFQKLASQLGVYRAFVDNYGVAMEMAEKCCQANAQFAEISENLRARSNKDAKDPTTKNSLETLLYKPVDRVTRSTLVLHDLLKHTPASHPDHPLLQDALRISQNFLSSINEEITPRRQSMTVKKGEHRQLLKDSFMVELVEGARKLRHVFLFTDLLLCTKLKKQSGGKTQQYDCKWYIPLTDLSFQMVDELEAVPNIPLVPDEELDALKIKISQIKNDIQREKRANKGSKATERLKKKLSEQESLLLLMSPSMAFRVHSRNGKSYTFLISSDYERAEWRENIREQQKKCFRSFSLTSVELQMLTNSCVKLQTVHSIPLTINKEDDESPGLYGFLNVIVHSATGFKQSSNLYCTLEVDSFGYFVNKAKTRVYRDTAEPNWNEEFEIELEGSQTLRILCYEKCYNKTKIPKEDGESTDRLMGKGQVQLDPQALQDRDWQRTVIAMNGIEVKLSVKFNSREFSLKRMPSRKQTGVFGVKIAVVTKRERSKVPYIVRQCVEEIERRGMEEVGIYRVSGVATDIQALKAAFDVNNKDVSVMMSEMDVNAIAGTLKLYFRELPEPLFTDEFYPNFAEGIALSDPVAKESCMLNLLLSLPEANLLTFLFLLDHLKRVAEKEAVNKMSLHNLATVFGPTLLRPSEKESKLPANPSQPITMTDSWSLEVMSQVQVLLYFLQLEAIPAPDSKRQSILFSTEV
Description: Inhibition of wild type BCR/ABL (unknown origin) transfected in mouse BAF3 cells assessed as growth inhibition after 72 hrs by CCK8 assay

[3] = target: Receptor-type tyrosine-protein kinase FLT3 (Homo sapiens) (UniProt P36888); test: Inhibition of wild type C-terminal FLAG-tagged human TEL fused FLT3 (unknown origin) transfected in mouse BAF3 cells assessed as growth inhibition after 72 hrs by CCK8 assay; format: cell-based
[4] = target: T2, Bcr/Abl fusion protein (Homo sapiens, UniProt P00519); test: (§1) Inhibition of BCR/ABL in human K562 cells assessed as inhibition of BCR/ABL autophosphorylation at Y245 site after 1 hr by immunoblotting analysis; format: cell-based
T2 sequence (P00519 whole entry, the tested form may be a part): as the sequence (P00519 whole entry, looked up, the tested form may be a part) above
T2 sequence (P11274 whole entry, further chain, the tested form may be a part): as the sequence (P11274 whole entry, looked up, the tested form may be a part) above

[5] = target: T1, Bcr/Abl fusion protein (Homo sapiens); test: as §1; format: cell-based
[6] = system: HL-60; test: Antiproliferative activity in human HL60 cells after 72 hrs by CCK8 assay; format: functional; details: HL-60, 72 h
[7] = system: Bcr/Abl fusion protein (Homo sapiens), P00519+P11274 [Q252H]; details: BaF3
[8] = target: T2, Bcr/Abl fusion protein; test: (§2) Inhibition of BCR/ABL in human KU812 cells assessed as inhibition of BCR/ABL autophosphorylation at Y245 site after 1 hr by immunoblotting analysis; format: cell-based
[9] = target: T1, Bcr/Abl fusion protein (Homo sapiens); test: as §2; format: cell-based
[10] = target: Fibroblast growth factor receptor 1 (Homo sapiens) (UniProt P11362); test: Inhibition of wild type C-terminal FLAG-tagged human TEL fused FGFR1 (unknown origin) transfected in mouse BAF3 cells assessed as growth inhibition after 72 hrs by CCK8 assay; format: cell-based
Chain of Fibroblast growth factor receptor 1 (Homo sapiens) (P11362 22-822 limits assumed): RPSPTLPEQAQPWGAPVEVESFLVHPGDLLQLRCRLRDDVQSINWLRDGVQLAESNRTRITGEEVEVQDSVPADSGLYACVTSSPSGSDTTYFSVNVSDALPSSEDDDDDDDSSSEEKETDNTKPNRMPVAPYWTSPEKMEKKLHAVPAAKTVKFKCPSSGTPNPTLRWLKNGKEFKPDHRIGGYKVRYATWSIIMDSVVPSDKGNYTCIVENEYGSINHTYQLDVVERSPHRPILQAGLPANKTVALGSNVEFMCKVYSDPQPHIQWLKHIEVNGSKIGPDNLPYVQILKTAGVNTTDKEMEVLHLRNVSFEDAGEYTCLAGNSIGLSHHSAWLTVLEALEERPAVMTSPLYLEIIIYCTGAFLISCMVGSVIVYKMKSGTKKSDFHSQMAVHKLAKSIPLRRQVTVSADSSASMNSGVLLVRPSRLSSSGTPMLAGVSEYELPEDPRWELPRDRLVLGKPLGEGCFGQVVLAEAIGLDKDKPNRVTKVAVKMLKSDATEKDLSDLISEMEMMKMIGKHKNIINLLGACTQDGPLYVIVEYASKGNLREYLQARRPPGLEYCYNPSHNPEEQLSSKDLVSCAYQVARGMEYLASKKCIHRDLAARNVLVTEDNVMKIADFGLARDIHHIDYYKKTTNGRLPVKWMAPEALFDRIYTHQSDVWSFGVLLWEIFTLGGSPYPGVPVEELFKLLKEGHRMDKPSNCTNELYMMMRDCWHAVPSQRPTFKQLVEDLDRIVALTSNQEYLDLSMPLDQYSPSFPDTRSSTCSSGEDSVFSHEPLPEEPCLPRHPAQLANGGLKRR

[11] = Apparent volume of distribution during terminal phase in mouse at 10 mg/kg, po by LC-MS/MS analysis; format: ADME, organism-based; details: in vivo
[12] = system: KU812 cell line; test: Antiproliferative activity in human KU812 cells after 72 hrs by CCK8 assay; format: functional; details: KU812, 72 h
[13] = AUC (0 to infinity) in mouse at 10 mg/kg, po by LC-MS/MS analysis; format: ADME, organism-based; parameters: dose 10 mg/kg, route oral, time infinity; details: in vivo
[14] = system: BaF3; test: Cell cycle arrest in mouse BAF3 cells expressing BCR/ABL T315I mutant assessed as accumulation at G0/G1 phase up to 0.3 uM after 24 hrs by propidium iodide/RNase staining based flow cytometric analysis; format: functional
[15] = target: T1, Bcr/Abl fusion protein (Homo sapiens); test: Inhibition of BCR/ABL in human MEG01 cells assessed as inhibition of CrkL phosphorylation up to 0.3 uM after 1 hr by immunoblotting analysis; format: cell-based
[16] = system: U-937; test: Antiproliferative activity in human U937 cells after 72 hrs by CCK8 assay; format: functional; details: U-937, 72 h
[17] = AUC (0 to t) in mouse at 10 mg/kg, po by LC-MS/MS analysis; format: ADME, organism-based; details: in vivo
[18] = target: Mast/stem cell growth factor receptor Kit (Homo sapiens) (UniProt P10721); test: Inhibition of wild type C-terminal FLAG-tagged human TEL fused cKIT (unknown origin) transfected in mouse BAF3 cells assessed as growth inhibition after 72 hrs by CCK8 assay; format: cell-based
[19] = AUC (0 to t) in Sprague-Dawley rat at 10 mg/kg, po by LC-MS/MS analysis; format: ADME, organism-based; details: in vivo
[20] = Toxicity in nu/nu mouse allografted with mouse BAF3 cells expressing BCR/ABL T315I mutant at 25 to 50 mg/kg, po administered daily via gavage for 14 days; format: organism-based; details: in vivo, 336 h
[21] = Antiproliferative activity in CHO cells after 72 hrs by CCK8 assay; format: cell-based, Cricetulus griseus; details: chinese hamster
[22] = system: MEC1; test: Antiproliferative activity in human MEC1 cells after 72 hrs by CCK8 assay; format: functional; details: MEC1, 72 h
[23] = Half life in mouse at 1 mg/kg, iv by LC-MS/MS analysis; format: ADME, organism-based; details: in vivo
[24] = Half life in Sprague-Dawley rat at 1 mg/kg, iv by LC-MS/MS analysis; format: ADME, organism-based; details: in vivo
[25] = system: BaF3; test: Induction of apoptosis in mouse BAF3 cells expressing BCR/ABL T315I mutant assessed as cleaved caspase-3 level up to 0.3 uM after 24 hrs by immunoblotting analysis; format: functional, cell-based
[26] = target: T2, Bcr/Abl fusion protein; test: (§3) Inhibition of BCR/ABL in human MEG01 cells assessed as inhibition of BCR/ABL autophosphorylation at Y245 site after 1 hr by immunoblotting analysis; format: cell-based
[27] = target: T1, Bcr/Abl fusion protein (Homo sapiens); test: as §3; format: cell-based
[28] = target: T1, Bcr/Abl fusion protein (Homo sapiens); test: Inhibition of BCR/ABL in human KU812 cells assessed as inhibition of STAT5 phosphorylation up to 0.3 uM after 1 hr by immunoblotting analysis; format: cell-based
[29] = target: Proto-oncogene tyrosine-protein kinase receptor Ret (Homo sapiens) (UniProt P07949); test: Inhibition of wild type C-terminal FLAG-tagged human TEL fused RET (unknown origin) transfected in mouse BAF3 cells assessed as growth inhibition after 72 hrs by CCK8 assay; format: cell-based
[30] = target: T1, Bcr/Abl fusion protein (Homo sapiens); test: Inhibition of BCR/ABL in human K562 cells assessed as inhibition of ErK phosphorylation up to 0.3 uM after 1 hr by immunoblotting analysis; format: cell-based
[31] = Cmax in mouse at 10 mg/kg, po by LC-MS/MS analysis; format: ADME, organism-based; parameters: dose 10 mg/kg, route oral; details: in vivo
[32] = AUC (0 to infinity) in mouse at 1 mg/kg, iv by LC-MS/MS analysis; format: ADME, organism-based; parameters: dose 1 mg/kg, route intravenous, time infinity; details: in vivo
[33] = system: BaF3; test: Antitumor activity against mouse BAF3 cells expressing BCR/ABL T315I mutant allografted in nu/nu mouse assessed as tumor growth inhibition at 25 to 50 mg/kg, po administered via gavage for 14 days by TUNEL staining based assay; format: functional, organism-based
[34] = Tmax in Sprague-Dawley rat at 1 mg/kg, iv by LC-MS/MS analysis; format: ADME, organism-based; details: in vivo
[35] = Oral bioavailability in Sprague-Dawley rat at 10 mg/kg by LC-MS/MS analysis; format: ADME, organism-based; details: in vivo
[36] = Cmax in Sprague-Dawley rat at 1 mg/kg, iv by LC-MS/MS analysis; format: ADME, organism-based; parameters: dose 1 mg/kg, route intravenous; details: in vivo
[37] = system: MEG-01; test: Induction of apoptosis in human MEG01 cells assessed as cleaved PARP level up to 0.3 uM after 24 hrs by immunoblotting analysis; format: functional, cell-based
[38] = Selectivity ratio of GI50 for mouse BAF3 cells to GI50 for BCR/ABL T315I mutant (unknown origin) transfected in mouse BAF3 cells
[39] = MRT (0 to t) in mouse at 1 mg/kg, iv by LC-MS/MS analysis; format: ADME, organism-based; details: in vivo
[40] = Tmax in mouse at 1 mg/kg, iv by LC-MS/MS analysis; format: ADME, organism-based; details: in vivo
[41] = target: Tyrosine-protein kinase ABL1 (Homo sapiens, UniProt P00519); test: Inhibition of inactive wild type His-tagged ABL (229 to 500 residues) (unknown origin) expressed in baculovirus infected sf9 cells assessed as reduction in autophosphorylation preincubated for 60 mins followed by ATP addition measured after 8 hrs by ADP-Glo assay
Chain of Tyrosine-protein kinase ABL1 (P00519 whole entry, the tested form may be a part): as the sequence (P00519 whole entry, looked up, the tested form may be a part) above

Chain of Platelet-derived growth factor receptor alpha (Homo sapiens) (P16234 whole entry, the tested form may be a part): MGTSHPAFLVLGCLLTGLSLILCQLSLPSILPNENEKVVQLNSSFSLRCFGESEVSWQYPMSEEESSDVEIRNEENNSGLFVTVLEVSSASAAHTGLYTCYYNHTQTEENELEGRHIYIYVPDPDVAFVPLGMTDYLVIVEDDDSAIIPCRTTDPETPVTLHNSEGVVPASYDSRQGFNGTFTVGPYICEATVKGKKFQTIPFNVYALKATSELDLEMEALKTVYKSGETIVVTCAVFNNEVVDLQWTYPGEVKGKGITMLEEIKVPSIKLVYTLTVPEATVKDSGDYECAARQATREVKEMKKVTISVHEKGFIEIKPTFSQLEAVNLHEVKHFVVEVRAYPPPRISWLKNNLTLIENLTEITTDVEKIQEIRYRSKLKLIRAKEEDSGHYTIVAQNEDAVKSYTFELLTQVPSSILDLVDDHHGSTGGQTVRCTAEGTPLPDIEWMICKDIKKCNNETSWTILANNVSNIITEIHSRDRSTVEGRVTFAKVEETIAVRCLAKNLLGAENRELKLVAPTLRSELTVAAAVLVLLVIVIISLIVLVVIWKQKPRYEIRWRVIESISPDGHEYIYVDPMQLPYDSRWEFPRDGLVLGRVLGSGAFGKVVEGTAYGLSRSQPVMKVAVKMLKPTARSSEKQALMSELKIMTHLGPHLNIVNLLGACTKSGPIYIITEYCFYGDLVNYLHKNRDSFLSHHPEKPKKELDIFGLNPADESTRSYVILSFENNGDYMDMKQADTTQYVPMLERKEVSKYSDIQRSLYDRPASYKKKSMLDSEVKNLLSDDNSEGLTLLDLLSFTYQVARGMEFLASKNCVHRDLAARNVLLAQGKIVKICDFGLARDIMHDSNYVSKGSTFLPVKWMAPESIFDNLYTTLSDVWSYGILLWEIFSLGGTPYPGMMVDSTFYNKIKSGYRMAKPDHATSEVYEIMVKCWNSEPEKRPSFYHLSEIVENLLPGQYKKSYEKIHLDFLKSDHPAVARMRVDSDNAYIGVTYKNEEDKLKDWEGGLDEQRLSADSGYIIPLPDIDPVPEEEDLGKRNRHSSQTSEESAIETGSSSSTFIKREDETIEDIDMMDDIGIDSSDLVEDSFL

CN1CCN(Cc2ccc(NC(=O)CCSc3ccc4c(/C=C/c5ccccn5)n[nH]c4c3)cc2C(F)(F)F)CC1
GI50 [1]: 0.002 µM
GI50 [2]: 0.007 µM
GI50 [3]: 0.004 µM
EC50 [4]: < 0.01 µM
inhibition [5]: Dose-dependent effect
GI50 [6]: 0.87 µM
GI50 [7]: 0.015 µM
EC50 [8]: < 0.03 µM
inhibition [9]: Dose-dependent effect
GI50 [10]: 0.042 µM
Vz [11]: 124.9 L/kg
GI50 [12]: 0.003 µM
AUC(0-inf) [13]: 230 ng·h/mL
Activity [14]: Active
inhibition [15]: Active
GI50 [16]: 0.78 µM
AUC(0-t) [17]: 225 ng·h/mL
GI50 [18]: 0.033 µM
AUC(0-t) [19]: 210 ng·h/mL
Activity [20]: Non-Toxic
GI50 at 72 h [21]: 1.12 µM
GI50 [22]: 0.5 µM
half-life [23]: 5 h
half-life [24]: 2.3 h
Activity [25]: Active
EC50 [26]: < 0.01 µM
inhibition [27]: Dose-dependent effect
inhibition [28]: Active
GI50 [29]: 0.2 µM
inhibition [30]: Active
Cmax [31]: 87.7 ng/mL
AUC(0-inf) [32]: 160 ng·h/mL
TGI [33]: Active
Tmax [34]: 1.2 min
bioavailability [35]: 10.9%
Cmax [36]: 1270 ng/mL
Activity [37]: Active
RatioGI50 [38]: 400
MRT last [39]: 1.7 h
Tmax [40]: 1.8 min
IC50 [41]: 0.002 µM
